Source: patent publication US11034725B2, “Compositions and methods for treating cardiovascular disease” (Genentech, Inc., priority 2016, dated 2021)
Like-named read-outs stand apart in the source and are kept apart here. Numbered stars: 1 amine (or outer) side, 2 acyl side, 3 side chain; on linkers, the order of the positions; unused ones are H or OH. Bridge positions count the residues as written; N and C are the ends. Square brackets hold non-standard residues; d marks the D form. Peptide text beside a SMILES is read from it. * marks the point of attachment. Trp(6-Br) = N[C@@H](Cc1c[nH]c2cc(Br)ccc12)C(=O)O; X9 = O=C([C@@H]1C(O)CCN1[*:1])[*:2]; X16 = O=C(c1cc(-c2ccncc2)[nH]n1)*; hArg = N=C(N)NCCCC[C@H](N)C(=O)O; X11 = O=C(CCCOc1ccc(Br)cc1)*; X31 = Cc1ccc(OCCCC(=O)*)cc1; X30 = O=C(CCc1cccc(O)c1)*; X4 = Cc1ccc(OCCC(=O)*)cc1; X27 = O=C(CCCN1CCOCC1)*; Pentanoyl = CCCCC(=O)*; X23 = NC(=O)NCCC(=O)*

How the values were obtained:
His-EGF(A)-Fc = His-EGF(A)-Fc TR-FRET counterscreen
PCSK9Δhelix = molecular target: T1, PCSK9Δhelix (Homo sapiens, UniProt Q8NBP7); experiment: PCSK9Δhelix/Ab20 TR-FRET binding assay; conditions: for IC50: TR-FRET, read-out: PCSK9Δhelix/Ab20 IC50
T1 construct: Human PCSK9 construct M1-Q692 with an engineered TEV site (residue deletion Y166, R167); made in house; host or cells: CHO
T1 sequence (Q8NBP7 with tags, fused parts or gaps limits assumed): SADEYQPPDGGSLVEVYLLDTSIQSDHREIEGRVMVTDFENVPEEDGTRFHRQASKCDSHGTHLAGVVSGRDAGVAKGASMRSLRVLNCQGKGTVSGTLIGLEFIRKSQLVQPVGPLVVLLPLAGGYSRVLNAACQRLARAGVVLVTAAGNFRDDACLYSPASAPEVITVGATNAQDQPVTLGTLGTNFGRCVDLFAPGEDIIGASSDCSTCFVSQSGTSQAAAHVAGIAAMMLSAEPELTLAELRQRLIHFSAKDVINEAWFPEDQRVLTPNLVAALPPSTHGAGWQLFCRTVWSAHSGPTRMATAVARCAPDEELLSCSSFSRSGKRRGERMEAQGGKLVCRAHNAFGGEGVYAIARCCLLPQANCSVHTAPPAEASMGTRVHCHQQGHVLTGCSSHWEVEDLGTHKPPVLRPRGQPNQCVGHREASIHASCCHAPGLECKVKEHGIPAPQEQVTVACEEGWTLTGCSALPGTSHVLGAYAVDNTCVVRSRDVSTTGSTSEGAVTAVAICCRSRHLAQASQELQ
T1 sequence (Q8NBP7 31-152 partner limits assumed): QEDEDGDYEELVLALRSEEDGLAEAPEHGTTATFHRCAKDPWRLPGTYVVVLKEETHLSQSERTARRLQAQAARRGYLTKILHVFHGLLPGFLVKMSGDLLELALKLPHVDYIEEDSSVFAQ

PCSK9 = PCSK9 (Homo sapiens, UniProt Q8NBP7); experiment: PCSK9/EGF(A) TR-FRET binding assay; conditions: TR-FRET; Table 8E, additional compounds; read-out: PCSK9/EGF(A) IC50
PCSK9, sequence (Q8NBP7 153-692): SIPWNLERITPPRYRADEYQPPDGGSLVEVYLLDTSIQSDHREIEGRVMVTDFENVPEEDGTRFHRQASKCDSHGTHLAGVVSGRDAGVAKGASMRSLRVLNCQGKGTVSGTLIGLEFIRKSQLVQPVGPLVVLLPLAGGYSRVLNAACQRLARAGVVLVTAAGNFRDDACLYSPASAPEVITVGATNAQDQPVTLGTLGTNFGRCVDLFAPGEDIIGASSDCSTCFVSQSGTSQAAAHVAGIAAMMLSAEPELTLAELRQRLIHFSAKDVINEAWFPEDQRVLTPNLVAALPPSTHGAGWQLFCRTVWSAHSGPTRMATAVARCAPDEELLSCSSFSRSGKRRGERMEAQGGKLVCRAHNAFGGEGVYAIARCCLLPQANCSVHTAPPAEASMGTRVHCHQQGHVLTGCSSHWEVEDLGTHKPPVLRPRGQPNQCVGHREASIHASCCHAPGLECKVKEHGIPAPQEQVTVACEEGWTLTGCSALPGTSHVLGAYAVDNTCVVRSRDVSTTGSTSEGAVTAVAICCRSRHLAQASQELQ
PCSK9, sequence (Q8NBP7 31-152 partner limits assumed): as the sequence (Q8NBP7 31-152 partner limits assumed) above

[1] = TR-FRET counterscreen, Table 8E, additional compounds
[2] = TR-FRET counterscreen, Table 8D, * = some inhibition at highest concentrations, not sufficient to fit an IC50

| Structure (SMILES) | IC50 (PCSK9Δhelix; Table 8E, additional compounds) | IC50 (PCSK9) | also measured |
| --- | --- | --- | --- |
| CCCCC(=O)N[C@@H](Cc1c[nH]c2cc(Br)ccc12)C(=O)N[C@@H](CC(N)=O)C(=O)N[C@@H](CC(C)C)C(=O)N[C@H](C(=O)N[C@@H](CCCNC(=N)N)C(=O)N[C@H](C(=O)NCC(=O)N[C@@H](CC(C)C)C(=O)N[C@H](C(=O)N[C@@H](CCCNC(=N)N)C(N)=O)[C@@H](C)O)[C@@H](C)CC)C(C)C [Compound 187] (Pentanoyl-[Trp(6-Br)]NLVRIGLTR-NH2) | – | – | IC50 (His-EGF(A)-Fc; [1]): 38 µM |
| CC[C@H](C)[C@@H]1NC(=O)[C@H](CCCNC(=N)N)NC(=O)[C@H](CCCCN)NC(=O)[C@H](CC(C)C)NC(=O)[C@H](CC(N)=O)NC(=O)[C@H](Cc2c[nH]c3ccccc23)NC(=O)[C@H](CC(C)C)NC(=O)[C@@H](NC(=O)[C@H](CCSC)NC(C)=O)CSSC[C@@H](C(=O)N[C@@H](CCC(=O)O)C(=O)N[C@@H](Cc2ccc(O)cc2)C(N)=O)NC(=O)[C@H](CCC(N)=O)NC(=O)[C@H](CO)NC(=O)CNC1=O [Compound 63] (Ac-MCLWNLKRIGSQCEY-NH2; disulfide 2-13) | – | – | inhibition in the PCSK9Δhelix/Ab20 binding assay (PCSK9Δhelix): low micromolar range; IC50 (PCSK9Δhelix; Table 8D, disulfide-cyclized extension peptides): 6 µM; IC50 (His-EGF(A)-Fc; [2]): 41 µM |
| CC[C@H](C)[C@H](NC(=O)[C@H](CCCNC(=N)N)NC(=O)[C@H](CCCCN)NC(=O)[C@H](CC(C)C)NC(=O)[C@H](CC(N)=O)NC(=O)[C@H](Cc1c[nH]c2ccccc12)NC(=O)[C@H](C)NC(=O)CCCCCNC(=O)[C@@H](NC(=O)[C@H](Cc1c[nH]c2ccccc12)NC(=O)[C@H](CC(=O)O)NC(=O)[C@H](CC(C)C)NC(=O)[C@H](Cc1ccc(O)cc1)NC(=O)[C@H](CCC(=O)O)NC(=O)[C@H](CCC(=O)O)NC(=O)[C@H](Cc1c[nH]c2ccccc12)NC(=O)[C@H](CO)NC(=O)[C@@H](NC(=O)[C@H](Cc1ccccc1)NC(=O)[C@@H](NC(=O)[C@@H](NC(C)=O)[C@@H](C)O)C(C)C)[C@@H](C)O)C(C)C)C(=O)NCC(N)=O [Compound 92] | – | – | IC50 (PCSK9Δhelix; Example 7): 0.013 µM; IC50 (His-EGF(A)-Fc; counterscreen, Example 7): > 50 µM |
| CC[C@H](C)[C@H](NC(=O)[C@H](CCCNC(=N)N)NC(=O)[C@H](CCCCN)NC(=O)[C@H](CC(C)C)NC(=O)[C@H](CC(N)=O)NC(=O)[C@H](Cc1c[nH]c2ccccc12)NC(=O)[C@H](C)NC(=O)CCCCCNC(=O)[C@@H](NC(=O)[C@H](Cc1c[nH]c2ccccc12)NC(=O)[C@H](CC(=O)O)NC(=O)[C@H](CC(C)C)NC(=O)[C@H](Cc1ccc(O)cc1)NC(=O)[C@H](CCC(=O)O)NC(=O)[C@H](CCC(=O)O)NC(=O)[C@H](Cc1c[nH]c2ccccc12)NC(=O)[C@H](CO)NC(=O)[C@@H](NC(=O)[C@H](Cc1ccccc1)NC(=O)[C@@H](NC(=O)[C@@H](NC(C)=O)[C@@H](C)O)C(C)C)[C@@H](C)O)C(C)C)C(=O)NCC(=O)N[C@@H](CO)C(N)=O [Compound 91] | – | – | IC50 (PCSK9Δhelix; Example 7): 0.01 µM; IC50 (His-EGF(A)-Fc; counterscreen, Example 7): > 50 µM |
| CC[C@H](C)[C@@H]1NC(=O)[C@H](CCCNC(=N)N)NC(=O)[C@H](CCC(N)=O)NC(=O)[C@H](CC(C)C)NC(=O)[C@H](CC(N)=O)NC(=O)[C@H](Cc2c[nH]c3ccccc23)NC(=O)[C@@H]2CCCN2C(=O)[C@H](CC(C)C)NC(=O)[C@H](CCCNC(=N)N)NC(=O)[C@@H](NC(=O)CNC(=O)CNC(=O)[C@H](CO)NC(=O)CNC(=O)[C@@H](NC(=O)[C@H](Cc2c[nH]c3ccccc23)NC(=O)[C@H](CC(=O)O)NC(=O)[C@H](CC(C)C)NC(=O)[C@H](Cc2ccc(O)cc2)NC(=O)[C@H](CCC(=O)O)NC(=O)[C@H](CCC(=O)O)NC(=O)[C@H](Cc2c[nH]c3ccccc23)NC(=O)[C@H](CO)NC(=O)[C@@H](NC(=O)[C@H](Cc2ccccc2)NC(=O)[C@@H](NC(=O)[C@@H](NC(C)=O)[C@@H](C)O)C(C)C)[C@@H](C)O)C(C)C)CSSC[C@@H](C(N)=O)NC(=O)[C@@H]2CCCN2C(=O)[C@H](CC(C)C)NC(=O)CNC1=O [Compound 25] (Ac-TVFTSWEEYLDWVGSGGCRLPWNLQRIGLPC-NH2; disulfide 18-31) | – | – | inhibition in the PCSK9Δhelix/Ab20 binding assay (PCSK9Δhelix): potent inhibitors; IC50 (PCSK9Δhelix; Example 7): 0.083 µM; IC50 (His-EGF(A)-Fc; counterscreen, Example 7): > 50 µM |
| CC(=O)N[C@H](C(=O)N[C@H](C(=O)N[C@@H](Cc1ccccc1)C(=O)N[C@H](C(=O)N[C@@H](CO)C(=O)N[C@@H](Cc1c[nH]c2ccccc12)C(=O)N[C@@H](CCC(=O)O)C(=O)N[C@@H](CCC(=O)O)C(=O)N[C@@H](Cc1ccc(O)cc1)C(=O)N[C@@H](CC(C)C)C(=O)N[C@@H](CC(=O)O)C(=O)N[C@@H](Cc1c[nH]c2ccccc12)C(=O)N[C@H](C(=O)NCC(=O)N[C@@H](CO)C(=O)NCC(=O)N[C@H]1CSSC[C@@H](C(N)=O)NC(=O)CNC(=O)[C@H](CCC(N)=O)NC(=O)[C@H](CO)NC(=O)CNC(=O)[C@H](C(C)C)NC(=O)[C@H](CCCNC(=N)N)NC(=O)[C@H](CCCCN)NC(=O)[C@H](CC(C)C)NC(=O)[C@H](CC(N)=O)NC(=O)[C@H](Cc2c[nH]c3ccccc23)NC1=O)C(C)C)[C@@H](C)O)C(C)C)[C@@H](C)O [Compound 12] (Ac-TVFTSWEEYLDWVGSGCWNLKRVGSQGC-NH2; disulfide 17-28) | – | – | IC50 (His-EGF(A)-Fc; counterscreen, Example 7): > 50 µM |
| CC[C@H](C)[C@@H]1NC(=O)[C@H](CCCNC(=N)N)NC(=O)[C@H](CCC(N)=O)NC(=O)[C@H](CC(C)C)NC(=O)[C@H](CC(N)=O)NC(=O)[C@H](Cc2c[nH]c3ccccc23)NC(=O)[C@@H]2C(O)CCN2C(=O)[C@H]([C@@H](C)CC)NC(=O)[C@H](Cc2ccccc2)NC(=O)[C@@H](NC(=O)CNC(=O)[C@H](CO)NC(C)=O)CSSC[C@@H](C(N)=O)NC(=O)[C@H](CC(C)C)NC(=O)[C@H](CC(C)C)NC(=O)CNC1=O (stereo partly shown) [Compound 242] (Ac-SGCFI[X9]WNLQRIGLLC-NH2; disulfide 3-16) | – | – | IC50 (His-EGF(A)-Fc; [1]): ≥ 50 µM |
| CC[C@H](C)[C@@H]1NC(=O)[C@H](CCCNC(=N)N)NC(=O)[C@H](CCC(N)=O)NC(=O)[C@H](CC(C)C)NC(=O)[C@H](CC(N)=O)NC(=O)[C@H](Cc2c[nH]c3ccccc23)NC(=O)[C@@H]2C(O)CCN2C(=O)[C@H](CC(C)C)NC(=O)[C@H](CCCNC(=N)N)NC(=O)[C@@H](NC(=O)CNC(=O)[C@H](CO)NC(C)=O)CSSC[C@@H](C(N)=O)NC(=O)[C@@H]2CCCN2C(=O)[C@H](CC(C)C)NC(=O)CNC1=O (stereo partly shown) [Compound 37] (Ac-SGCRL[X9]WNLQRIGLPC-NH2; disulfide 3-16) | – | – | IC50 (His-EGF(A)-Fc; [2]): > 50 µM |
| CC[C@H](C)[C@H](NC(=O)[C@H](CCCCNC(=N)N)NC(=O)[C@@H](NC(=O)[C@H](CC(C)C)NC(=O)[C@H](CC(N)=O)NC(=O)[C@H](Cc1c[nH]c2ccccc12)NC(=O)CCCN1CCOCC1)C(C)C)C(=O)NCC(=O)N[C@@H](CC(C)C)C(=O)N[C@@H](CC(C)C)C(=O)N[C@@H](CCCNC(=N)N)C(N)=O [Compound 193] (X27-WNLV[hArg]IGLLR-NH2) | 1.5 µM | ≥ 50 µM | – |
| CC[C@H](C)[C@H](NC(=O)[C@H](CCCNC(=N)N)NC(=O)[C@@H](NC(=O)[C@H](CC(C)C)NC(=O)[C@H](CC(N)=O)NC(=O)[C@H](Cc1c[nH]c2ccccc12)NC(=O)CCNC(N)=O)C(C)C)C(=O)NCC(=O)N[C@@H](CC(C)C)C(=O)N[C@@H](CC(C)C)C(=O)N[C@@H](CCCNC(=N)N)C(N)=O [Compound 141] (X23-WNLVRIGLLR-NH2) | 36 µM | ≥ 50 µM | – |
| CC[C@H](C)[C@H](NC(=O)[C@H](CCCNC(=N)N)NC(=O)[C@@H](NC(=O)[C@H](CC(C)C)NC(=O)[C@H](CC(N)=O)NC(=O)[C@H](Cc1c[nH]c2ccccc12)NC(=O)c1cc(-c2ccncc2)[nH]n1)C(C)C)C(=O)NCC(=O)N[C@@H](CC(C)C)C(=O)N[C@@H](CC(C)C)C(=O)N[C@@H](CCCNC(=N)N)C(N)=O [Compound 150] (X16-WNLVRIGLLR-NH2) | 8.2 µM | 22 µM | – |
| CC[C@H](C)[C@H](NC(=O)[C@H](CCCCNC(=N)N)NC(=O)[C@@H](NC(=O)[C@H](CC(C)C)NC(=O)[C@H](CC(N)=O)NC(=O)[C@H](Cc1c[nH]c2ccccc12)NC(=O)CCOc1ccc(C)cc1)C(C)C)C(=O)NCC(=O)N[C@@H](CC(C)C)C(=O)N[C@@H](CC(C)C)C(=O)N[C@@H](CCCNC(=N)N)C(N)=O [Compound 211] (X4-WNLV[hArg]IGLLR-NH2) | 3.8 µM | 14 µM | – |
| CC[C@H](C)[C@H](NC(=O)[C@H](CCCNC(=N)N)NC(=O)[C@@H](NC(=O)[C@H](CC(C)C)NC(=O)[C@H](CC(N)=O)NC(=O)[C@H](Cc1c[nH]c2ccccc12)NC(=O)CCc1cccc(O)c1)C(C)C)C(=O)NCC(=O)N[C@@H](CC(C)C)C(=O)N[C@H](C(=O)N[C@@H](CCCNC(=N)N)C(N)=O)[C@@H](C)O [Compound 168] (X30-WNLVRIGLTR-NH2) | 7.8 µM | ≥ 50 µM | – |
| CC[C@H](C)[C@H](NC(=O)[C@H](CCCCNC(=N)N)NC(=O)[C@@H](NC(=O)[C@H](CC(C)C)NC(=O)[C@H](CC(N)=O)NC(=O)[C@H](Cc1c[nH]c2ccccc12)NC(=O)CCCOc1ccc(Br)cc1)C(C)C)C(=O)NCC(=O)N[C@@H](CC(C)C)C(=O)N[C@@H](CC(C)C)C(=O)N[C@@H](CCCNC(=N)N)C(N)=O [Compound 206] (X11-WNLV[hArg]IGLLR-NH2) | 0.87 µM | 1.8 µM | – |
| CC[C@H](C)[C@H](NC(=O)[C@H](CCCCNC(=N)N)NC(=O)[C@@H](NC(=O)[C@H](CC(C)C)NC(=O)[C@H](CC(N)=O)NC(=O)[C@H](Cc1c[nH]c2ccccc12)NC(=O)CCCOc1ccc(C)cc1)C(C)C)C(=O)NCC(=O)N[C@@H](CC(C)C)C(=O)N[C@@H](CC(C)C)C(=O)N[C@@H](CCCNC(=N)N)C(N)=O [Compound 207] (X31-WNLV[hArg]IGLLR-NH2) | 0.32 µM | 1.3 µM | – |
